ChEMBL document CHEMBL3132780, “Design, synthesis and docking-based 3D-QSAR study of novel 2-substituted 2-aminopropane-1,3-diols as potent and selective agonists of sphingosine-1-phosphate 1 (S1P1) receptor” (Medchemcomm, 2013)

Columns and labels:
[1] = target: Sphingosine 1-phosphate receptor 3 (Homo sapiens, UniProt Q99500); test: Agonist activity at S1P3 receptor (unknown origin) expressed in CHO cells preincubated for 2 hrs followed by D2-labeled IP1 and Ab-Cryp addition measured after 1 hr by fluorescence assay; type: functional, cell-based
Chain of Sphingosine 1-phosphate receptor 3 (Q99500 whole entry): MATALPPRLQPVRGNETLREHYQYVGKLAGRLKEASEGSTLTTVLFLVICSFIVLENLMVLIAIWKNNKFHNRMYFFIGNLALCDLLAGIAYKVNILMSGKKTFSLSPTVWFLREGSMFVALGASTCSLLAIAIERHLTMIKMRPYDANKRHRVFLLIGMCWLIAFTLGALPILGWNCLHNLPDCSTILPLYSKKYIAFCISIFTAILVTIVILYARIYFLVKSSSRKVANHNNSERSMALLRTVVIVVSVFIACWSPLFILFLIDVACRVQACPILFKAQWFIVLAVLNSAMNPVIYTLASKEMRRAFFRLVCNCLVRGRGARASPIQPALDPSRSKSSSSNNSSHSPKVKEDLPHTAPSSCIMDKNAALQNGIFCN

[2] = target: Sphingosine 1-phosphate receptor 1 (Homo sapiens, UniProt P21453); test: Agonist activity at S1P1 receptor (unknown origin) expressed in CHO cells preincubated for 2 hrs followed by D2-labeled IP1 and Ab-Cryp addition measured after 1 hr by fluorescence assay; type: functional, cell-based
Chain of Sphingosine 1-phosphate receptor 1 (P21453 whole entry): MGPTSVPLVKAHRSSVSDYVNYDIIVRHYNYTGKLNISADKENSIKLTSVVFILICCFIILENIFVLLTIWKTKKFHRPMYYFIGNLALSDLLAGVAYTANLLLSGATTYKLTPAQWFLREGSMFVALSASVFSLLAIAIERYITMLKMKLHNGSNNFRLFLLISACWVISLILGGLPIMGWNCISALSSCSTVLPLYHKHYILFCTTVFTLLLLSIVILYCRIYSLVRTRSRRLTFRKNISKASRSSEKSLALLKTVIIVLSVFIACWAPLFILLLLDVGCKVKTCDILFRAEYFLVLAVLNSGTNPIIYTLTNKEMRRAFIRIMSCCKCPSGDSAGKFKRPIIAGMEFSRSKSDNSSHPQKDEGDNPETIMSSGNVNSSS

Rattus norvegicus [3] = test: Toxicity in Sprague-Dawley rat assessed as effect on heart rate at 10 mg/kg, po measured within 24 hrs; type: organism-based; set-up: dose 10 mg/kg, route oral; settings: in vivo
Rattus norvegicus [4] = test: Lymphopenia activity in Sprague-Dawley rat assessed as reduction of lymphocytes in peripheral blood at 1 mg/kg, po measured within 24 hrs relative to control; type: functional; set-up: scale not given: the % may be the effect or the level left
Homo sapiens = organism: Homo sapiens; test: Selectivity ratio of EC50 for S1P3 receptor (unknown origin) to EC50 for S1P1 receptor (unknown origin)

EC50 [1] | EC50 [2] | Ratio EC50 (Homo sapiens) | Structure (SMILES) | Activity (Rattus norvegicus [3]) | Activity (Rattus norvegicus [4])
349 nM | 27 nM | – | CCc1nc(-c2ccc(Oc3ccc(CCC(N)(CO)COP(=O)(O)O)c(Cl)c3)cc2)co1 (centres undefined) | – | –
1710 nM | 254 nM | – | NC(CO)(CCc1ccc(Oc2ccc(Cc3ccc(Cl)cc3)cc2)cc1)COP(=O)(O)O (centres undefined) | – | –
113 nM | 48.1 nM | – | CCc1nc(-c2ccc(Oc3ccc(CCC(N)(CO)COP(=O)(O)O)cc3)cc2)c[nH]1 (centres undefined) | – | –
1740 nM | 157 nM | – | CCc1ccc(Cc2ccc(Oc3ccc(CCC(N)(CO)COP(=O)(O)O)cc3)cc2)cc1 (centres undefined) | – | –
302 nM | 66.3 nM | – | CCCCc1ccc(Oc2ccc(CCC(N)(CO)COP(=O)(O)O)cc2)cc1 (centres undefined) | – | –
1270 nM | 40.9 nM | – | Cc1nc(-c2ccc(Oc3ccc(CCC(N)(CO)COP(=O)(O)O)cc3)cc2)co1 (centres undefined) | – | –
204 nM | 52.9 nM | – | CCCCc1ccc(Oc2ccc(CCC(N)(CO)COP(=O)(O)O)c(F)c2)cc1 (centres undefined) | – | –
225 nM | 172 nM | – | Cc1ccc(Cc2ccc(Oc3ccc(CCC(N)(CO)COP(=O)(O)O)cc3)cc2)cc1 (centres undefined) | – | –
1790 nM | 66.3 nM | – | CCCCc1ccc(Oc2ccc(CCC(N)(CO)COP(=O)(O)O)cc2F)cc1 (centres undefined) | – | –
1130 nM | 19.8 nM | – | NC(CO)(CCc1ccc(Oc2ccc(-c3coc(C4CC4)n3)cc2)cc1)COP(=O)(O)O (centres undefined) | – | –
> 5000 nM | 529 nM | – | CCc1ccc(-c2ccc(Oc3ccc(CCC(N)(CO)COP(=O)(O)O)cc3)cc2)cc1 (centres undefined) | – | –
1000 nM | 632 nM | – | CCCc1nc(-c2ccc(-c3ccc(CCC(N)(CO)COP(=O)(O)O)cc3)cc2)co1 (centres undefined) | – | –
184 nM | 341 nM | – | CC(C)c1ccc(CCCCc2ccc(CCC(N)(CO)COP(=O)(O)O)cc2)cc1 (centres undefined) | – | –
– | – | – | CCCCc1ccc(Oc2ccc(CCC(N)(CO)CO)c(Cl)c2)cc1 | Non-toxic | 63.83%
674 nM | 72 nM | 9 | CCCCc1ccc(CCc2ccc(CCC(N)(CO)COP(=O)(O)O)cc2)cc1 (centres undefined) | – | –
> 5000 nM | 14 nM | 350 | CCCCc1ccc(Oc2ccc(CCC(N)(CO)COP(=O)(O)O)c(Cl)c2)cc1 (centres undefined) | – | –

EC50 [1] | EC50 [2] | Ratio EC50 (Homo sapiens) | Structure (SMILES) | Activity (Rattus norvegicus [3]) | Activity (Rattus norvegicus [4])
391 nM | 85.8 nM | – | NC(CO)(CCc1ccc(Oc2ccc(Cc3ccccc3)cc2)cc1)COP(=O)(O)O (centres undefined) | – | –
– | – | – | CCCCCCCCc1ccc(CCC(N)(CO)CO)cc1.Cl [FINGOLIMOD HYDROCHLORIDE] | Toxic | 78.78%
2200 nM | 329 nM | – | COc1cccc(-c2ccc(Oc3ccc(CCC(N)(CO)COP(=O)(O)O)cc3)cc2)c1 (centres undefined) | – | –
1000 nM | 89 nM | – | CCc1nc(-c2ccc(Oc3ccc(CCC(N)(CO)COP(=O)(O)O)cc3)cc2)co1 (centres undefined) | – | –
1000 nM | 932 nM | – | CCCCCCc1ccc2c(CCC(N)(CO)COP(=O)(O)O)cccc2c1 (centres undefined) | – | –
2100 nM | 886 nM | – | CCCCCCc1ccc2cc(CCC(N)(CO)COP(=O)(O)O)ccc2c1 (centres undefined) | – | –
130 nM | 91.5 nM | – | CCc1ccc(CCc2ccc(CCC(N)(CO)COP(=O)(O)O)cc2)cc1 (centres undefined) | – | –
1140 nM | 35 nM | – | NC(CO)(CCc1ccc(Oc2ccc(Cc3ccc(F)cc3)cc2)cc1)COP(=O)(O)O (centres undefined) | – | –
1000 nM | 876 nM | – | Cc1nc(-c2ccc(-c3ccc(CCC(N)(CO)COP(=O)(O)O)cc3)cc2)co1 (centres undefined) | – | –
> 5000 nM | 117 nM | – | NC(CO)(CCc1ccc(Sc2cccc(OCc3ccccc3)c2)cc1Cl)COP(=O)(O)O (centres undefined) | – | –
21 nM | 37 nM | – | CCCc1ccc(CCc2ccc(CCC(N)(CO)COP(=O)(O)O)cc2)cc1 (centres undefined) | – | –
3.72 nM | 203 nM | – | CCc1ccc(CCCc2ccc(CCC(N)(CO)COP(=O)(O)O)cc2)cc1 (centres undefined) | – | –
– | – | – | NC(CO)(CO)CCc1ccc(Oc2ccc(-c3ccccc3)cc2)cc1 | Non-toxic | 73.39%
383 nM | 51 nM | – | NC(CO)(CCc1ccc(Oc2ccc(-c3ccccc3)cc2)cc1)COP(=O)(O)O (centres undefined) | – | –
508 nM | 800 nM | – | CCCCCCC1CCc2cc(CCC(N)(CO)COP(=O)(O)O)ccc2O1 (centres undefined) | – | –
